Test results: patent publication US20250136606A1, “MODULATORS OF TRPML, THEIR COMPOSITIONS AND METHODS OF USE” (Caraway Therapeutics, Inc., priority 2021, published 2025)
Read-outs that look alike come from different tables or passages of the source.

Tests used:
Assay type in all cases: cell-based
TRPML1 = TRPML1 (Homo sapiens, UniProt Q9GZU1); assay: Fluorescent TRPML1 assay (Fluo4-AM calcium fluorescence in doxycycline-induced HEK-293 Trex cells)
In short: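 EC50 values come from non-linear regression of percent activity, normalized to on-plate positive and negative controls, with fluorescence read at 480 nm excitation and 540 nm emission. Fluo4-AM-loaded (1 µM) doxycycline-induced HEK-293 Trex cells expressing mutated human TRPML1 were exposed in 10 mM calcium Ringer's to 6 nM–20 µM compound, in triplicate.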

TRPML2 = molecular target: T1, TRPML2 (Homo sapiens, UniProt Q8IZK6); assay: Fluorescent TRPML2 assay (performed as for TRPML1, substituting the TRPML2 subtype)
T1 construct: expressed in transfected cells
T1 sequence (Q8IZK6 1-566): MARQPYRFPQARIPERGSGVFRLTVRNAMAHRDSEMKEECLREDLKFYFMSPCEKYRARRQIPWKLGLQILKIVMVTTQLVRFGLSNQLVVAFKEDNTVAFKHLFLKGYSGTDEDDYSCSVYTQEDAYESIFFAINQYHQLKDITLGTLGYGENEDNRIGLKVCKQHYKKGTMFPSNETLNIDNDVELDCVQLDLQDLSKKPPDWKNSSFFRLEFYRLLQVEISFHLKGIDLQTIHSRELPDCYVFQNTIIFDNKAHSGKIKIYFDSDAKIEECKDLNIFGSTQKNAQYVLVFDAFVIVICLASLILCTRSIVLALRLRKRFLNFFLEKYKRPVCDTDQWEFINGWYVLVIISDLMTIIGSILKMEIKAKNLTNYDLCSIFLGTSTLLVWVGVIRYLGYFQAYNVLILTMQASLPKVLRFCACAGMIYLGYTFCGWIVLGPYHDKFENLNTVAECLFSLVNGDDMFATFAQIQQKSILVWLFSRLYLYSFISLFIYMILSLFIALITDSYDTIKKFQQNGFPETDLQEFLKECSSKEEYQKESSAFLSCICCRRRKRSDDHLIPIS
Protocol: HEK-293 Trex cells were stably transfected with a construct consisting of the human coding sequence for TRPML1 cloned into the […] plasmid pCDNA5 T/O. Mutations were introduced into the TRPML1 sequence to facilitate expression on the cell surface (Silvia Vergarajauregui, Rosa Puertollano, Traffic. 2006 March; 7(3): 337-353). Briefly, the cells are cultured in 150 mm round tissue culture dishes containing 20 mL of media. The day before the assay the cells are rinsed with DPBS-Ca—Mg and then treated briefly with Trypsin-EDTA. The Trypsin-EDTA is diluted with growth media, and cells are counted. 38×10^6 cells are re-plated into 150 mm round tissue culture dishes in media containing 0.5 ug/mL doxycycline to induce expression of hTRPML1.
The day of the experiment cells are lifted from the plates as above and collected by centrifugation. The cells are then suspended in dye loading buffer consisting of Ringer's solution supplemented with 0.1% Pluronic Acid and 1 micromolar Fluo4-AM dye. Cells are loaded for ˜60 minutes in the dark with occasional mixing. The cells are collected by centrifugation, the loading media aspirated, and the cells resuspended in 25 mL Ringer's solution and incubated ˜60 minutes in the dark. The cells are again collected by centrifugation, rinsed in Ringer's Solution and resuspended to […] in modified Ringer's solution containing 10 mM calcium.
Compounds are dissolved to a concentration of 10 millimolar with DMSO. Compound plates are created by dispensing compounds into 384 well black wall clear bottom plates (Greiner 781091). Positive and negative controls are included on each plate. Typically, different amounts of each compound are tested ranging from 100 nanoMoles (20 micromolar final concentration) decreasing in half-log steps to 31 picoMoles (6 nanomolar final concentration). Each concentration is typically tested in triplicate.
50 microliters of dye-loaded cells are dispensed into each well of the compound assay plate created above. The fluorescence in each well is then determined with an excitation wavelength of 480 nm and an emission wavelength of 540 nm using either a Molecular Devices SpectraMax multimode plate reader or a Hamamatsu FDSS/uCell plate imager.
The resulting fluorescence for each well is exported as an ascii file and loaded into our LIMS for analysis. The percent activity of each compound at each concentration is determined by comparison to the positive and negative control wells included in each plate.
TRPML2 and TRPML3 Assays Assays for TRPML2 and TRPML3 were performed as above for TRPML1, by substituting the appropriate TRPML2 or TRPML3 subtype for the TRPML1.
EC50 values were calculated using a non-linear regression of Prism. In the table, “A” indicates an EC50 of less than 100 nM, “B” indicates an EC50 range from 100 nM to 500 nM; “C” indicates an EC50 range from 500 nM to 2 μM; and “D” indicates an EC50 greater than 2 μM.

TRPML3 = molecular target: T2, TRPML3 (Homo sapiens, UniProt Q8TDD5); assay: Fluorescent TRPML3 assay (performed as for TRPML1, substituting the TRPML3 subtype)
T2 construct: expressed in transfected cells
T2 sequence (Q8TDD5 1-553): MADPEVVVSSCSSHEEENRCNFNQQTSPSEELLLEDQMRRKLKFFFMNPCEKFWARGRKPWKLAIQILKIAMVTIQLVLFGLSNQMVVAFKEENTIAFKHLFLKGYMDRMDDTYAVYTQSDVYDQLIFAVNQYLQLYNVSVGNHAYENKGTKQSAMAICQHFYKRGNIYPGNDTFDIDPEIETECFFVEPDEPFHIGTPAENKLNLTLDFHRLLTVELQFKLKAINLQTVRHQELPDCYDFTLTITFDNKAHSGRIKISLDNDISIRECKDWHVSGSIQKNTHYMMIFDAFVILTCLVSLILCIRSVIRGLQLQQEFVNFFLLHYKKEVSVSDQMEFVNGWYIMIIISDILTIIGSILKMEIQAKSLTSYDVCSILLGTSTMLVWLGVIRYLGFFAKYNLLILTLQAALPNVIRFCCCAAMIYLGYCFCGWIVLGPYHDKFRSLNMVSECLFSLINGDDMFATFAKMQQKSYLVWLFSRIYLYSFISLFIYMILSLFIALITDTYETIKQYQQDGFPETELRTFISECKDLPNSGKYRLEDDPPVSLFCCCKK
In short: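 Agonist activity is scored as percent of plate controls from Fluo4 fluorescence after dye-loaded, doxycycline-induced HEK-293 Trex cells meet compound in high-calcium (10 mM) Ringer's. Compounds run in half-log dilutions from 20 micromolar final, in triplicate.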

Sequence of TRPML1 (Q9GZU1 whole entry L15A/L16A/L577A/L578A, form open): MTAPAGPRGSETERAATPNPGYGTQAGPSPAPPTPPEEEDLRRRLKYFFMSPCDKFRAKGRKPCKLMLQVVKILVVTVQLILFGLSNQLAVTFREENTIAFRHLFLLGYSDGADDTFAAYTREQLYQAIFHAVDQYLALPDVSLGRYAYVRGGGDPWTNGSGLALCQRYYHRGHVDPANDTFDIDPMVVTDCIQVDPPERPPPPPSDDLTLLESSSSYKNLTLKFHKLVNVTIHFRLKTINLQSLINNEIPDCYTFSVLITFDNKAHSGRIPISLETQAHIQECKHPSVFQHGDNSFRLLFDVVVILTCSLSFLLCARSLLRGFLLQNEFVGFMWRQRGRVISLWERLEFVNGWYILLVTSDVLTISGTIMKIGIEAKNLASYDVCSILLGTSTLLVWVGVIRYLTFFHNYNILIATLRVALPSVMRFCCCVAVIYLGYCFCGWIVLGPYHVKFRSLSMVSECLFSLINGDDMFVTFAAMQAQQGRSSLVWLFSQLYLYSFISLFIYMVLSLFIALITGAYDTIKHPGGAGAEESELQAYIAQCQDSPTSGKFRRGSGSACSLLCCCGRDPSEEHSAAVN

SMILES | EC50 (TRPML1; fluorescent calcium assay) [nM] | EC50 (TRPML2; fluorescent calcium assay) [nM] | EC50 (TRPML3; fluorescent calcium assay) [nM] | EC50 (TRPML1) [nM] | EC50 (TRPML2) [nM] | EC50 (TRPML3) [nM]
CC(C)(C)OC(=O)N1CCN(c2ncnc3c2c(C2CC2)cn3-c2cc(F)cc(F)c2)C[C@@H]1CF (single isomer, unassigned) [Compound 270] | 500 to 2000 | > 2000 | 100 to 500 |  |  | 
CC(C)(C)OC(=O)N1CCN(c2ncnc3c2c(C2CC2)cn3-c2cc(F)cc(F)c2)C[C@H]1C(F)F (single isomer, unassigned) [Compound 314] | 500 to 2000 | > 2000 | 500 to 2000 |  |  | 
CC(C)(C)OC(=O)N1CCN(c2ncnc3c2c(C2CC2)cn3-c2cc(C#N)ccn2)[C@@H]2C[C@@H]21 (single isomer, unassigned) [Compound 408] | 100 to 500 | 100 to 500 | < 100 |  |  | 
CC(C)(C)OC(=O)N1CCN(c2ncnc3c2c(C2CC2)cn3-c2cc(C#N)ccn2)[C@H]2C[C@H]21 (single isomer, unassigned) [Compound 409] | < 100 | 100 to 500 | < 100 |  |  | 
C[C@@H]1CN(c2ncnc3c2c(C(F)(F)F)cn3[C@@H]2CCCC(F)(F)C2)[C@@H](C)CN1C(=O)OC(C)(C)C (single isomer, unassigned) [Compound 714] |  |  |  | 100 to 500 | 500 to 2000 | 100 to 500
CC(C)(C)OC(=O)N1CCN(c2ncnc3c2c(-c2ccccn2)cn3-c2cccc(Cl)c2)CC1 [Compound 101, tert-butyl 4-(7-(3-chlorophenyl)-5-(pyridin-2-yl)-7H-pyrrolo[2,3-d]pyrimidin-4-yl)piperazine-1-carboxylate] | 100 to 500 | 100 to 500 | < 100 |  |  | 
CC(C)(C)OC(=O)N1CCN(c2ncnc3c2c(-c2cccnc2)cn3-c2cccc(Cl)c2)CC1 [Compound 102, tert-butyl 4-(7-(3-chlorophenyl)-5-(pyridin-3-yl)-7H-pyrrolo [2,3-d]pyrimidin-4-yl)piperazine-1-carboxylate] | < 100 | 100 to 500 | < 100 |  |  | 
COc1cncc(-n2cc(-c3ccccc3F)c3c(N4CCN(C(=O)OC(C)(C)C)CC4)ncnc32)c1 [Compound 103, tert-butyl 4-(5-(2-fluorophenyl)-7-(5-methoxypyridin-3-yl)-7H-pyrrolo[2,3-d]pyrimidin-4-yl)piperazine-1-carboxylate] | 100 to 500 | 500 to 2000 | 100 to 500 |  |  | 
COc1cncc(-n2cc(C3CC3)c3c(N4CCN(C(=O)OC(C)(C)C)CC4)ncnc32)c1 [Compound 104, tert-butyl 4-(5-cyclopropyl-7-(5-methoxypyridin-3-yl)-7H-pyrrolo[2,3-d]pyrimidin-4-yl)piperazine-1-carboxylate] | 500 to 2000 | > 2000 | 100 to 500 |  |  | 
COc1cncc(-n2cc(-c3ccccc3F)c3c(N4CCN(C(=O)OC(C)(C)C)C[C@@H]4C)ncnc32)c1 [Compound 105, tert-butyl (S)-4-(5-(2-fluorophenyl)-7-(5-methoxypyridin-3-yl)-7H-pyrrolo[2,3-d]pyrimidin-4-yl)-3-methylpiperazine-1-carboxylate] | 500 to 2000 | > 2000 | 500 to 2000 |  |  | 
COc1cncc(-n2cc(C3CC3)c3c(N4CCN(C(=O)OC(C)(C)C)C[C@@H]4C)ncnc32)c1 [Compound 106, tert-butyl (S)-4-(5-cyclopropyl-7-(5-methoxypyridin-3-yl)-7H-pyrrolo[2,3-d]pyrimidin-4-yl)-3-methylpiperazine-1-carboxylate] | 100 to 500 | 500 to 2000 | 100 to 500 |  |  | 
CC(C)(C)OC(=O)N1CCN(c2ncnc3c2c(C2CC2)cn3-c2ccc(Cl)cc2)CC1 [Compound 107, tert-butyl 4-(7-(4-chlorophenyl)-5-cyclopropyl-7H-pyrrolo[2,3-d]pyrimidin-4-yl) piperazine-1-carboxylate] | < 100 | 100 to 500 | < 100 |  |  | 
C[C@@H]1CN(c2ncnc3c2c(C2CC2)cn3-c2cc(F)cc(F)c2)CCN1C(=O)OC(C)(C)C [Compound 108, tert-butyl (R)-4-(5-cyclopropyl-7-(3,5-difluorophenyl)-7H-pyrrolo[2,3-d]pyrimidin-4-yl)-2-methylpiperazine-1-carboxylate] | < 100 | 100 to 500 | < 100 |  |  | 
C[C@@H]1CN(c2ncnc3c2c(C2CC2)cn3-c2ccc(F)c(F)c2)CCN1C(=O)OC(C)(C)C [Compound 109, tert-butyl (R)-4-(5-cyclopropyl-7-(3,4-difluorophenyl)-7H-pyrrolo[2,3-d]pyrimidin-4-yl)-2-methylpiperazine-1-carboxylate] | < 100 | < 100 | < 100 |  |  | 
C[C@@H]1CN(c2ncnc3c2c(C2CC2)cn3-c2ccc(Cl)c(F)c2)CCN1C(=O)OC(C)(C)C [Compound 110, tert-butyl (R)-4-(7-(4-chloro-3-fluorophenyl)-5-cyclopropyl-7H-pyrrolo[2,3-d]pyrimidin-4-yl)-2-methylpiperazine-1-carboxylate] | < 100 | < 100 | < 100 |  |  | 
C[C@@H]1CN(c2ncnc3c2c(C2CC2)cn3-c2cc(Cl)cc(Cl)c2)CCN1C(=O)OC(C)(C)C [Compound 111, tert-butyl (R)-4-(5-cyclopropyl-7-(3,5-dichlorophenyl)-7H-pyrrolo[2,3-d]pyrimidin-4-yl)-2-methylpiperazine-1-carboxylate] | < 100 | 100 to 500 | < 100 |  |  | 
CCOC(=O)N1CCN(c2ncnc3c2c(C2CC2)cn3-c2ccc(Cl)cc2)[C@@H](C)C1 [Compound 112, ethyl (S)-4-(7-(4-chlorophenyl)-5-cyclopropyl-7H-pyrrolo[2,3-d]pyrimidin-4-yl)-3-methylpiperazine-1-carboxylate] | 100 to 500 | 100 to 500 | 500 to 2000 |  |  | 
CC(C)(C)OC(=O)N1CCN(c2ncnc3c2c(C2CC2)cn3-c2ccc(F)c(F)c2)CC1 [Compound 113, tert-butyl 4-(5-cyclopropyl-7-(3,4-difluorophenyl)-7H-pyrrolo[2,3-d]pyrimidin-4-yl)piperazine-1-carboxylate] | < 100 | 500 to 2000 | 100 to 500 |  |  | 
